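Growth conditions: 96-well plates. Treatment: test compound, 48 hours, 5 concentrations. Analysis: linear interpolation between bracketing concentrations; unreached endpoints set to highest concentration. GI50 = concentration required for 50% inhibition of growth.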 Calls of active or inactive are those of the source. Rule as the data show it: active = GI50 up to about 1.1 µM and inactive = higher.
Columns and labels:
Experiment in all cases: NCI tumour cell line growth inhibition, 48 h
HCT-15 = system: HCT-15
LOX IMVI = system: LOX IMVI
MOLT-4 = system: MOLT-4
NCI-H460 = system: NCI-H460
SF-539 = system: SF-539
786-0 = system: 786-0
NCI-H226 = system: NCI-H226
UO-31 = system: UO-31
IGROV-1 = system: IGROV-1
U-251 = system: U-251
EKVX = system: EKVX
SR = system: SR
SK-OV-3 = system: SK-OV-3
SW-620 = system: SW-620
HOP-92 = system: HOP-92
CAKI-1 = system: CAKI-1

## N#CC1(C2CC(=O)N(c3ccccc3)C2=O)CCCCC1=O (configuration not stated)
HCT-15
  GI50: > 100 µM
LOX IMVI
  GI50: > 100 µM (inactive)
MOLT-4
  GI50: > 100 µM (inactive)
NCI-H460
  GI50: > 100 µM (inactive)
SF-539
  GI50: > 100 µM (inactive)
786-0
  GI50: > 100 µM (inactive)
NCI-H226
  GI50: > 100 µM (inactive)
UO-31
  GI50: > 100 µM (inactive)
IGROV-1
  GI50: > 100 µM (inactive)
U-251
  GI50: > 100 µM (inactive)
EKVX
  GI50: > 100 µM (inactive)
SR
  GI50: > 100 µM (inactive)
SK-OV-3
  GI50: > 100 µM (inactive)
SW-620
  GI50: > 100 µM (inactive)

## O=C(CCCCCCCCC(=O)OCC1OC(n2cnc3c(=O)[nH]cnc32)C(O)C1O)OCC1OC(n2cnc3c(=O)[nH]cnc32)C(O)C1O (configuration not stated)
HCT-15
  GI50: > 100 µM
LOX IMVI
  GI50: > 100 µM (inactive)
MOLT-4
  GI50: > 100 µM (inactive)
NCI-H460
  GI50: > 100 µM (inactive)
SF-539
  GI50: > 100 µM (inactive)
786-0
  GI50: > 100 µM (inactive)
NCI-H226
  GI50: > 100 µM (inactive)
UO-31
  GI50: > 100 µM (inactive)
IGROV-1
  GI50: > 100 µM (inactive)
U-251
  GI50: > 100 µM (inactive)
HOP-92
  GI50: > 100 µM (inactive)
EKVX
  GI50: > 100 µM (inactive)
CAKI-1
  GI50: > 100 µM (inactive)
SK-OV-3
  GI50: > 100 µM (inactive)
SW-620
  GI50: > 100 µM (inactive)

## CCNC(=O)O/N=C1\CCC2[C@@H]3CC=C4C[C@@H](OC5CCCCO5)CC[C@]4(C)C3CC[C@]12C (some centres not stated)
HCT-15
  GI50: 1.63 µM
LOX IMVI
  GI50: 1.58 µM (inactive)
MOLT-4
  GI50: 1.61 µM (inactive)
NCI-H460
  GI50: 1.93 µM (inactive)
SF-539
  GI50: 6.19 µM (inactive)
786-0
  GI50: 2.31 µM (inactive)
UO-31
  GI50: 1.44 µM (inactive)
IGROV-1
  GI50: 3.16 µM (inactive)
U-251
  GI50: 1.89 µM (inactive)
HOP-92
  GI50: 2.48 µM (inactive)
EKVX
  GI50: 2.51 µM (inactive)
CAKI-1
  GI50: 2.5 µM (inactive)
SK-OV-3
  GI50: 5.31 µM (inactive)
SW-620
  GI50: 2.45 µM (inactive)

## CCN(CC)c1cccc2c1C1(O)CCC3(CC21)OCCCCO3 (configuration not stated)
HCT-15
  GI50: 66.8 µM
LOX IMVI
  GI50: 50.8 µM (inactive)
MOLT-4
  GI50: > 100 µM (inactive)
NCI-H460
  GI50: 53.2 µM (inactive)
SF-539
  GI50: 35.3 µM (inactive)
786-0
  GI50: 74 µM (inactive)
NCI-H226
  GI50: 63.4 µM (inactive)
UO-31
  GI50: > 100 µM (inactive)
IGROV-1
  GI50: 67.1 µM (inactive)
U-251
  GI50: 39.9 µM (inactive)
CAKI-1
  GI50: > 100 µM (inactive)
SK-OV-3
  GI50: 71.9 µM (inactive)
SW-620
  GI50: 69.3 µM (inactive)

## CCCCCC[C@@H]1CCC2C(CO)[C@@H](O)CC[C@@H]2C1 (some centres not stated)
HCT-15
  GI50: 19 µM
LOX IMVI
  GI50: 19.3 µM (inactive)
MOLT-4
  GI50: 18.2 µM (inactive)
NCI-H460
  GI50: 15.5 µM (inactive)
SF-539
  GI50: 18.7 µM (inactive)
786-0
  GI50: 19.3 µM (inactive)
NCI-H226
  GI50: 20.6 µM (inactive)
UO-31
  GI50: 20.7 µM (inactive)
IGROV-1
  GI50: 18.2 µM (inactive)
U-251
  GI50: 18.2 µM (inactive)
EKVX
  GI50: 18.2 µM (inactive)
SR
  GI50: 22.5 µM (inactive)
CAKI-1
  GI50: > 10 µM (inactive)
SW-620
  GI50: 23.1 µM (inactive)

## O=C(CSc1nnc(Cc2ccccc2)o1)Nc1ccc(Cl)cc1Cl
HCT-15
  GI50: > 100 µM
LOX IMVI
  GI50: > 100 µM (inactive)
MOLT-4
  GI50: > 100 µM (inactive)
NCI-H460
  GI50: > 100 µM (inactive)
SF-539
  GI50: > 100 µM (inactive)
786-0
  GI50: > 100 µM (inactive)
NCI-H226
  GI50: > 100 µM (inactive)
UO-31
  GI50: > 100 µM (inactive)
IGROV-1
  GI50: > 100 µM (inactive)
U-251
  GI50: > 100 µM (inactive)
CAKI-1
  GI50: > 100 µM (inactive)
SK-OV-3
  GI50: > 100 µM (inactive)
SW-620
  GI50: > 100 µM (inactive)

## COc1cc(C(=O)NO)ccc1O
HCT-15
  GI50: > 100 µM
LOX IMVI
  GI50: > 100 µM (inactive)
MOLT-4
  GI50: > 100 µM (inactive)
NCI-H460
  GI50: > 100 µM (inactive)
SF-539
  GI50: 87.7 µM (inactive)
786-0
  GI50: > 100 µM (inactive)
UO-31
  GI50: > 100 µM (inactive)
IGROV-1
  GI50: > 100 µM (inactive)
U-251
  GI50: > 100 µM (inactive)
HOP-92
  GI50: > 100 µM (inactive)
EKVX
  GI50: > 100 µM (inactive)
SK-OV-3
  GI50: > 100 µM (inactive)
SW-620
  GI50: > 100 µM (inactive)

## C=CCNC(=S)N1CC(C)C(=O)Nc2ccccc21 (configuration not stated)
HCT-15
  GI50: > 100 µM
LOX IMVI
  GI50: > 100 µM (inactive)
MOLT-4
  GI50: > 100 µM (inactive)
NCI-H460
  GI50: > 100 µM (inactive)
SF-539
  GI50: > 100 µM (inactive)
786-0
  GI50: > 100 µM (inactive)
NCI-H226
  GI50: > 100 µM (inactive)
UO-31
  GI50: > 100 µM (inactive)
IGROV-1
  GI50: > 100 µM (inactive)
U-251
  GI50: > 100 µM (inactive)
EKVX
  GI50: > 100 µM (inactive)
SR
  GI50: > 100 µM (inactive)
SW-620
  GI50: > 100 µM (inactive)

## CC(=O)c1cccc(NC(=O)/C(=N\NC(C)(C)C)c2c(O)c3ccccc3oc2=O)c1
HCT-15
  GI50: > 100 µM
LOX IMVI
  GI50: > 100 µM (inactive)
MOLT-4
  GI50: > 100 µM (inactive)
NCI-H460
  GI50: > 100 µM (inactive)
SF-539
  GI50: > 100 µM (inactive)
786-0
  GI50: > 100 µM (inactive)
NCI-H226
  GI50: > 100 µM (inactive)
UO-31
  GI50: > 100 µM (inactive)
IGROV-1
  GI50: > 100 µM (inactive)
HOP-92
  GI50: > 100 µM (inactive)
EKVX
  GI50: > 100 µM (inactive)
SR
  GI50: > 100 µM (inactive)
CAKI-1
  GI50: > 100 µM (inactive)
SK-OV-3
  GI50: > 100 µM (inactive)
SW-620
  GI50: > 100 µM (inactive)

## Cc1occ2c1C(=O)CC1C2[C@@H](O)CC2C(C)(C)CCC[C@]12C (some centres not stated)
HCT-15
  GI50: > 100 µM
MOLT-4
  GI50: 40 µM (inactive)
SF-539
  GI50: > 100 µM (inactive)
786-0
  GI50: > 100 µM (inactive)
NCI-H226
  GI50: > 100 µM (inactive)
UO-31
  GI50: > 100 µM (inactive)
IGROV-1
  GI50: > 100 µM (inactive)
U-251
  GI50: 94.8 µM (inactive)
HOP-92
  GI50: > 100 µM (inactive)
EKVX
  GI50: > 100 µM (inactive)
SR
  GI50: 67.5 µM (inactive)
SK-OV-3
  GI50: > 100 µM (inactive)
SW-620
  GI50: > 100 µM (inactive)

Source: ChEMBL document CHEMBL1201862, “PubChem BioAssay data set” (2004)
